Test results from patent publication US20230272012A1, “PEPTIDES AND METHODS OF USE” (REALTA LIFE SCIENCES, INC., priority 2020, published 2023).
“Also recorded” adds a separate entry of the source. Bridge positions count the residues as written; N and C are the ends. Square brackets hold non-standard residues; d marks the D form. Ends that are not written are not given here. Peptide text beside a SMILES is read from it. S5 = C=CCCC[C@](C)(N)C(=O)O; Sar = CNCC(=O)O

Experiments:
[1] = test system: complement activity; assay: Hemolytic assay of plasma after IV infusion into rats; type: in vivo, rat; conditions: IV in Wistar rats; early time points at the highest dose
Protocol: Male Wistar rats with indwelling jugular catheters were administered PA-0117, -0127, -0130, and -0133 with groups of three animals receiving 20, 200 and 400 mg/kg of the compound as a single, bolus, IV infusion. A control group of rats received an infusion of saline IV. At various time points after infusion (0.5, 2, 5, 20, 60, 120, 240, 480, 1440 minute) an aliquot of blood was drawn and plasma isolated and frozen at −70° C. pending analysis. Animals were sacrificed after the terminal blood draw and a gross necropsy performed.
PA-0117 could not be analyzed as no functional complement activity was obtained from the plasma samples. […] PA-0117 was analyzed in a C1q target acquisition assay (C1q binding assay) as described in Example 1 (FIG. 9). […] PA-0127 and -0130 levels were determined by coating the plate with the plasma samples and directly detecting the peptides by rabbit antibody raised against PA-0020 (peptide sequence […]; SEQ ID NO: 57) (FIGS. 10B and 11B). […] PA-0133 could not be detected by the available antibodies.

[2] = test system: human neutrophils; assay: NETosis assay (free DNA, PicoGreen); type: cell-based; conditions: peptide 2 mM; neutrophils stimulated with PMA and H2O2
Protocol: Free DNA as a marker for NET formation was measured by PicoGreen as previously described. Briefly, 2.0×10^6 human neutrophils in 96-well plates were stimulated with 12 nM PMA and 0.05% H2O2 in RPMI with or without the indicated peptide variants (2 mM) for 2.5 hr in a 37° C. humified incubator supplemented with 5% CO2, allowing NETosis to occur. Neutrophils in RPMI alone served as a negative control. Fifty units of […] (Fisher) were added to each well to allow for digestion of released extracellular DNA for 10 min at 37° C. The preparation was then aliquoted into an adjacent well and mixed 1:1 with prepared PICO green reagent (Fisher). The fluorescence was then quantified on a BioTek microplate reader at excitation 485 nm/emission 528 nm.

[3] = ABO incompatibility hemolytic assay of complement activity (CH50-type); type: cell-based, human; conditions: peptide 0.8 mg/ml (~0.5 mM); read-out: decrease of ABO hemolysis compared to PA-I8Sar
Protocol: FIG. 1A-1B show PIC1 peptides' inhibition of complement activation in an ABO incompatibility assay. […] Inhibition of ABO incompatibility hemolysis in a CH50-type assay. Peptides are at a final concentration of 0.5 mM. Values are represented as a percent of the positive control, which consists of human O sera and AB red blood cells in GVBS^++ buffer. Data are the means of n=3 independent experiments±SEM.
For hemolytic complement assays, human red blood cells (RBCs) from type AB donors were purified, washed, and standardized to 1.0×10^9 cells/ml, as previously described. Human sera from type O donors at a 15% final concentration was combined with 0.5 mM of the peptides and the volume was brought up to 0.2 ml with GVBS^++ and 5.0×10^7 RBCs. The samples were incubated for 1 hour at 37° C. and then spun at 3,000 rpm for 5 minutes and the supernatant was collected and read at 412 nm. Values are represented as a percent of the positive control, which consists of human O sera and AB red blood cells in GVBS^++ buffer.
To assess the extent to which the peptide variants inhibit antibody-initiated complement activation, an ABO incompatibility ex vivo assay was utilized in which purified erythrocytes from a ‘type AB+’ donor are incubated with sera from a ‘type O’ subject containing anti-A and anti-B antibodies. Peptides were tested at a concentration of 0.8 mg/ml (˜0.5 mM). […] D-amino acid variants PA-0127 and PA-0133 decreased ABO hemolysis by 20% (P value=0.083) and 25% (P value=0.076), respectively. […]

[4] = molecular target: T1, C1q (Homo sapiens, UniProt P02745+P02746+P02747); assay: C1q binding ELISA-type assay; conditions: half-maximal binding from binding curves
T1 construct: purchased Complement Technology (Tyler, Tex.)
Protocol: The C1q binding assay was performed as previously described. Briefly, an Immunlon-2 HB ELISA plate was coated with 1 μg/ml C1q in bicarbonate buffer overnight at 4° C. The plates were washed with PBS-T (phosphate buffered saline+0.1% Tween) and then blocked with 1% gelatin/PBS for 2 hours at room temperature. After washing, the plates were incubated with the peptides starting at 2.5 mg/ml and then serially diluted in 1% gelatin/PBS for 1 hour at room temperature followed by washing. Plates were then probed with rabbit antibody raised against the lead peptide […] (SEQ ID NO: 2) that lacked PEGylation at 1:1000 in 1% gelatin/PBS for 1 hour at room temperature followed by a goat anti-rabbit HRP (Sigma Aldrich, St Louis, Mo.) at 1:1,000 in 1% gelatin/PBS for 1 hour at room temperature with a washing step in between. After addition of TMB substrate solution to the wells, the reaction was stopped using 1N H2SO4, and the plate read on a BioTek Synergy HT plate reader at 450 nm.
The astrovirus capsid protein and the PIC1 molecules derived from it inhibit classical complement pathway activation by binding to the pattern recognition molecule C1q. The inventors next tested peptide variant binding to C1q in an ELISA-type assay in which C1q is used as the capture substrate and bound peptide detected with a rabbit polyclonal antibody against the peptide portion of PA-dPEG24 ([…]-d24; SEQ ID NO: 3). Binding curves were derived for the stapled and D-amino acid peptides based on the PA-I8Sar and PA-C9Sar (FIG. 6A-6D) backbone, from which half-maximal binding concentrations were calculated (FIGS. 2A and B, respectively). […] For the D-amino acid variants, all peptides in which C1q binding was detected, had variable but increased binding to C1q compared to PA-I8Sar (FIG. 2A). For the peptides based on the PA-C9Sar backbone, with the exception of PA-0148, C1q was bound to the same degree or greater than the parent peptide (FIG. 2B).
The inventors also assessed the ability of RLS-0127* and RLS-0133* to inhibit MPO activity as determined by inhibition of oxidation of TMB in a plate-based assay. […] Additionally, the inventors assessed the ability of RLS-0127* and RLS-0133* to bind C1q in a plate-based assay in which C1q is coated on the plate and increasing amounts of the peptides are added, followed by primary antibody to the peptides and secondary antibody conjugated to HRP. The plate was then incubated with TMB to give a […] signal that is detected at a wavelength of 450 nm in a plate reader.

T1 sequence (P02745 23-245): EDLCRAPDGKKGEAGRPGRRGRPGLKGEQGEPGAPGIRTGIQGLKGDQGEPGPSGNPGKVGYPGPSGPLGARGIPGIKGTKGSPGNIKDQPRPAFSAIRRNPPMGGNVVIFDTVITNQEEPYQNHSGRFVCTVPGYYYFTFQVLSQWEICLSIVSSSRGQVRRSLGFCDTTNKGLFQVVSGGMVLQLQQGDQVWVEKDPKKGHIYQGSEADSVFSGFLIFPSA
T1 sequence (P02746 28-253): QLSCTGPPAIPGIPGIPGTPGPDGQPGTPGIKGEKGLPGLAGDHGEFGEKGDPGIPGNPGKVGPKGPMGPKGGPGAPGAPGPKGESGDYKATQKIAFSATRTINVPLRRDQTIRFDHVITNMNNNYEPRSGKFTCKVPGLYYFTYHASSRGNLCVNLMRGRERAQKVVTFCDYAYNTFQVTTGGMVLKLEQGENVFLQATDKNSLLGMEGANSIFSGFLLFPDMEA
T1 sequence (P02747 29-245): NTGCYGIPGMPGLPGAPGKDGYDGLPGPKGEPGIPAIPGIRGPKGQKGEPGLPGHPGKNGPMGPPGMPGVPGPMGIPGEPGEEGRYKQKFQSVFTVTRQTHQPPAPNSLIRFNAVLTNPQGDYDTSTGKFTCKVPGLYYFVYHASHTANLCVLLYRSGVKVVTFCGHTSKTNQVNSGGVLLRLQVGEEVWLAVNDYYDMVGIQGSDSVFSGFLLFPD

Molecule	inhibition of complement activity in the hemolytic assay of rat plasma [1]	reduction of free DNA (marker of NETosis) [2]	decrease in ABO hemolysis compared to reference peptide [3] [%]	binding to C1q compared with PA-I8Sar [4]
CC[C@H](C)[C@H](N)C(=O)N[C@@H](C)C(=O)N[C@@H](CC(C)C)C(=O)N[C@H](C(=O)N[C@@H](CC(C)C)C(=O)N[C@@H](CCC(=O)O)C(=O)N1CCC[C@H]1C(=O)N(C)CC(=O)N[C@@H](CS)C(=O)N[C@@H](CS)C(=O)N[C@@H](CCC(N)=O)C(=O)N[C@@H](CCC(=O)O)C(=O)N[C@@H](CCCNC(=N)N)C(=O)N[C@@H](C)C(=O)N[C@H](C)C(=O)O)[C@@H](C)CC [PA-0133, IALILEP(Sar)CCQERAdA] (HELM PEPTIDE1{I.A.L.I.L.E.P.[Sar].C.C.Q.E.R.A.[dA]}$$$$V2.0)	inhibition of complement activity	reduction in free DNA similar to that of the PA-I8Sar control; also recorded: ability to inhibit NET formation	25	
IALILS5P(Sar)CS5QERAA (IALIL[S5]P[Sar]C[S5]QERAA; staple 6-10) [PA-0119]				markedly increased binding to C1q
